Drawing on patent US10092584B2 (Achillion Pharmaceuticals, Inc., priority 2015, dated 2018), this text covers IC50 for 27 compounds.

Molecules are shown by their SMILES. Structures can show the parent of a compound that is named as a salt. Some results are limits rather than exact numbers.

T1 sequence (P00746 26-253): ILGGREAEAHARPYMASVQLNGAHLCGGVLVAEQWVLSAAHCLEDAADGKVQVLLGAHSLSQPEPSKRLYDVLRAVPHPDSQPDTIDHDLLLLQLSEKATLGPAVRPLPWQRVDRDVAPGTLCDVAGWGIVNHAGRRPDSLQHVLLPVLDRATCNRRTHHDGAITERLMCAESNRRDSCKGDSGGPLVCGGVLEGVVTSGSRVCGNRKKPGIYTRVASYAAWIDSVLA

The experiment concerns the target T1, Human Factor D (Homo sapiens, UniProt P00746).
T1 construct: purified from human serum; purchased Complement Technology, Inc; host or cells: human serum
Briefly: Human Factor D assay (Example 8). The format is biochemical. The settings on record: Table 3; Human Factor D 80 nM, substrate Z-L-Lys-SBzl; read-out: IC50 (Stars). The method, boiled down:
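Factor D (from human serum) 80 nM final + cpd, 5 min RT, 50 mM Tris/1M NaCl pH 7.5; add Z-L-Lys-SBzl 100 μM and DTNB 100 μM final. IC50 by nonlinear fit of rates vs [cpd].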
In general, IC50 refers to the concentration that inhibits the measured activity by half. On to `CC(=O)c1cn(CC(=O)N2C[C@H](F)C[C@H]2C(=O)NCc2cccc(Cl)c2F)c2cc(C(=N)N)ccc12` [Compound 382, (2S,4R)-1-(2-(3-Acetyl-6-carbamimidoyl-1H-indol-1-yl)acetyl)-N-(3-chloro-2-fluorobenzyl)-4-fluoropyrrolidine-2-carboxamide TFA], for which the half-maximal inhibitory concentration (IC50) was under 1000 nM.

On to `Cc1nc2c(s1)c(C(N)=O)nn2CC(=O)N1C[C@H](F)C[C@H]1C(=O)Nc1cccc(-c2ccccc2Cl)c1F` [Compound 383, 1-(2-((2S,4R)-2-(2′-Chloro-2-fluorobiphenyl-3-ylcarbamoyl)-4-fluoropyrrolidin-1-yl)-2-oxoethyl)-5-methyl-1H-pyrazolo[3,4-d]thiazole-3-carboxamide], for which the IC50 was under 1000 nM.

For `CC(=O)c1nn(CC(=O)N2C[C@H](F)C[C@H]2C(=O)Nc2cccc(Br)n2)c2ccccc12` [Compound 388, (2S,4R)-1-(2-(3-acetyl-1H-indazol-1-yl)acetyl)-N-(6-bromopyridin-2-yl)-4-fluoropyrrolidine-2-carboxamide], the 50% inhibitory concentration (IC50) was under 1000 nM.

For the compound `COC(=O)/C=C/c1cccc(NC(=O)[C@@H]2C[C@@H](F)CN2C(=O)Cn2nc(C(N)=O)c3ccccc32)c1F` [Compound 389, (E)-methyl 3-(3-((2S,4R)-1-(2-(3-carbamoyl-1H-indazol-1-yl)acetyl)-4-fluoropyrrolidine-2-carboxamido)-2-fluorophenyl) acrylate], the IC50 fell in the range of 1000 to 10000 nM.

Regarding `CC(=O)c1nn(CC(=O)N2C[C@H](F)C[C@H]2C(=O)Nc2cccc(Br)n2)c2ccc(O)cc12` [Compound 395, (2S,4R)-1-(2-(3-acetyl-5-hydroxy-1H-indazol-1-yl)acetyl)-N-(6-bromopyridin-2-yl)-4-fluoropyrrolidine-2-carboxamide], the IC50 was under 1000 nM.

In the case of `CC(=O)c1nn(CC(=O)N2[C@@H]3C[C@@H]3C[C@H]2C(=O)NC/C(F)=C(/C)c2cccc(Cl)c2)c2ccccc12` [Compound 396], the IC50 is under 1000 nM.

On to `CC(=O)c1nn(CC(=O)N2C[C@H](F)C[C@H]2C(=O)NCC23CC4CC(CC(C4)C2)C3)c2ccccc12` [Compound 397, (2S,4R)-1-(2-(3-acetyl-1H-indazol-1-yl)acetyl)-N-(((3S,5S,7S)-adamantan-1-yl)methyl)-4-fluoropyrrolidine-2-carboxamide], for which the half-maximal inhibitory concentration (IC50) is under 1000 nM.

As for `CC(=O)c1nn(CC(=O)N2C[C@H](F)C[C@H]2C(=O)Nc2cccc(Br)n2)c2cnc(Cl)cc12` [Compound 399, (2S,4R)-1-(2-(3-Acetyl-5-chloro-1H-pyrazolo[3,4-c]pyridin-1-yl)acetyl)-N-(6-bromopyridin-2-yl)-4-fluoropyrrolidine-2-carboxamide], the 50% inhibitory concentration (IC50) is under 1000 nM.

As to `CC(=O)c1nn(CC(=O)N2C[C@H](F)C[C@H]2C(=O)Nc2cccc(-c3ccc4c(c3)CCN4)c2F)c2ccccc12` [Compound 435, (2S,4R)-1-(2-(3-Acetyl-1H-indazol-1-yl)acetyl)-4-fluoro-N-(2-fluoro-3-(indolin-5-yl)phenyl)pyrrolidine-2-carboxamide], the half-inhibitory concentration (IC50) is under 1000 nM.

Consider `CC(=O)c1nn(CC(=O)N2C[C@H](F)C[C@H]2C(=O)Nc2cccc(-c3ccc4c(c3)NCCN4)c2F)c2ccccc12` [Compound 436], for which the IC50 was under 1000 nM.

On to `CC(=O)c1nn(CC(=O)N2C[C@H](F)C[C@H]2C(=O)Nc2cccc(-c3ccc4c(c3)NCC4)c2F)c2ccccc12` [Compound 437, (2S,4R)-1-(2-(3-acetyl-1H-indazol-1-yl)acetyl)-4-fluoro-N-(2-fluoro-3-(indolin-6-yl)phenyl)pyrroli-dine-2-carboxamide], for which the 50% inhibitory concentration (IC50) is under 1000 nM.

As to `CC(=O)c1nn(CC(=O)N2C[C@H](F)C[C@H]2C(=O)Nc2cccc(-c3ccc4c(c3)CNC4)c2F)c2ccccc12` [Compound 439, (2S,4R)-1-(2-(3-Acetyl-1H-indazol-1-yl)acetyl)-4-fluoro-N-(2-fluoro-3-(isoindolin-5-yl)phenyl)pyrrolidine-2-carboxamide], the IC50 is under 1000 nM.

As for `NC(=O)c1nn(CC(=O)N2C[C@H](F)C[C@H]2C(=O)Nc2cccc(-c3ccc4c(c3)NCCO4)c2F)c2ccccc12` [Compound 442, 1-(2-((2S,4R)-2-((3-(3,4-Dihydro-2H-benzo[b][1,4]oxazin-6-yl)-2-fluorophenyl)carbamoyl)-4-fluoropyrrolidin-1-yl)-2-oxoethyl)-1H-indazole-3-carboxamide], the IC50 was under 1000 nM.

With `NC(=O)c1nn(CC(=O)N2C[C@H](F)C[C@H]2C(=O)Nc2cccc(-c3ccc4c(c3Cl)NCCN4)c2F)c2ccccc12` [Compound 443, 1-(2-((2S,4R)-2-((3-(5-Chloro-1,2,3,4-tetrahydroquinoxalin-6-yl)-2-fluorophenyl)carbamoyl)-4-fluoropyrrolidin-1-yl)-2-oxoethyl)-1H-indazole-3-carboxamide], the IC50 was under 1000 nM.

`CC(=O)c1nn(CC(=O)N2C[C@H](F)C[C@H]2C(=O)Nc2cccc(-c3ccc4c(c3Cl)NCCN4)c2F)c2ccccc12` [Compound 445, (2S,4R)-1-(2-(3-Acetyl-1H-indazol-1-yl)acetyl)-N-(3-(5-chloro-1,2,3,4-tetrahydroquinoxalin-6-yl)-2-fluorophenyl)-4-fluoropyrrolidine-2-carboxamide]: the IC50 was under 1000 nM.

`CC(=O)c1nn(CC(=O)N2C[C@H](F)C[C@H]2C(=O)Nc2cccc(-c3ccc4c(c3)CCCN4)c2F)c2ccccc12` [Compound 449, (2S,4R)-1-(2-(3-Acetyl-1H-indazol-1-yl)acetyl)-4-fluoro-N-(2-fluoro-3-(1,2,3,4-tetrahydroquinolin-6-yl)phenyl)pyrrolidine-2-carboxamide]: the IC50 is under 1000 nM.

Turning to `CC(=O)c1nn(CC(=O)N2C[C@H](F)C[C@H]2C(=O)Nc2cccc(-c3ccc4c(c3)NCCC4)c2F)c2ccccc12` [Compound 450, (2S,4R)-1-(2-(3-Acetyl-1H-indazol-1-yl)acetyl)-4-fluoro-N-(2-fluoro-3-(1,2,3,4-tetrahydroquinolin-7-yl)phenyl)pyrrolidine-2-carboxamide], the half-maximal inhibitory concentration (IC50) was under 1000 nM.

As to `CC(=O)c1nn(CC(=O)N2C[C@H](F)C[C@H]2C(=O)Nc2cccc(-c3ccc4c(c3)CNCC4)c2F)c2ccccc12` [Compound 451, (2S,4R)-1-(2-(3-Acetyl-1H-indazol-1-yl)acetyl)-4-fluoro-N-(2-fluoro-3-(1,2,3,4-tetrahydroisoquinolin-7-yl)phenyl)pyrrolidine-2-carboxamide], the IC50 is under 1000 nM.

Turning to `O=C(NCc1cccc(Cl)c1F)[C@@H]1C[C@@H](F)CN1C(=O)Cn1cc(-c2cnco2)c2ccccc21` [Compound 452, (2S,4R)—N-(3-chloro-2-fluorobenzyl)-4-fluoro-1-(2-(3-(oxazol-5-yl)-1H-indol-1-yl)acetyl)pyrrolidine-2-carboxamide], the 50% inhibitory concentration (IC50) is under 1000 nM.

With `C[C@@]12C[C@@H](C(=O)Nc3cccc(-c4ccc5nc[nH]c5c4Cl)c3F)N(C(=O)Cn3nc(C(N)=O)c4ccccc43)[C@@H]1C2` [Compound 453, 1-(2-((1R,3S,5R)-3-((3-(7-chloro-1H-benzo[d]imidazol-6-yl)-2-fluorophenyl)car-bamoyl)-5-methyl-2-azabicyclo[3.1.0]hexan-2-yl)-2-oxoethyl)-1H-indazole-3-carboxamide], the IC50 is under 1000 nM.

Consider `CC(=O)c1nn(CC(=O)N2[C@@H]3C[C@@H]3C[C@H]2C(=O)Nc2cccc(-c3ccc4nc[nH]c4c3Cl)c2F)c2cnc(C)cc12` [Compound 454, (1R,3S,5R)-2-(2-(3-acetyl-5-methyl-1H-pyrazolo[3,4-c]pyridin-1-yl)acetyl)-N-(3-(7-chloro-1H-benzo[d]imidazol-6-yl)-2-fluorophenyl)-2-azabicyclo[3.1.0] hexane-3-carboxamide], for which the half-inhibitory concentration (IC50) was under 1000 nM.

On to `CC(=O)c1nn(CC(=O)N2C[C@H](F)C[C@H]2C(=O)Nc2cccc(-c3ccc4nc[nH]c4c3F)c2F)c2ccccc12` [Compound 455, (2S,4R)-1-(2-(3-acetyl-1H-indazol-1-yl)acetyl)-4-fluoro-N-(2-fluoro-3-(7-fluoro-1H-benzo[d]imidazol-6-yl)phenyl)pyrrolidine-2-carboxamide], for which the 50% inhibitory concentration (IC50) is under 1000 nM.

`NC(=O)c1nn(CC(=O)N2C[C@H](F)C[C@H]2C(=O)Nc2cccc(-c3ccc4nc[nH]c4c3F)c2F)c2ccccc12` [Compound 456, 1-(2-((2S,4R)-4-fluoro-2-((2-fluoro-3-(7-fluoro-1H-benzo[d]imidazol-6-yl)phenyl)carba-moyl)pyrrolidin-1-yl)-2-oxoethyl)-1H-indazole-3-carboxamide]: the IC50 is under 1000 nM.

For the compound `CC(=O)c1nn(CC(=O)N2C[C@H](F)C[C@H]2C(=O)Nc2cccc(-c3cccc4nc[nH]c34)c2F)c2ccccc12` [Compound 457, (2S,4R)-N-(3-(1H-benzo[d]imidazol-7-yl)-2-fluorophenyl)-1-(2-(3-acetyl-1H-indazol-1-yl)acetyl)-4-fluoropyrrolidine-2-carboxamide], the 50% inhibitory concentration (IC50) is under 1000 nM.

With `NC(=O)c1nn(CC(=O)N2C[C@H](F)C[C@H]2C(=O)Nc2cccc(-c3cc(Cl)c4nc[nH]c4c3)c2F)c2ccccc12` [Compound 458, 1-(2-((2S,4R)-2-(3-(4-chloro-1H-benzo[d]imidazol-6-yl)-2-fluorophenylcarb-amoyl)-4-fluoropyrrolidin-1-yl)-2-oxoethyl)-1H-indazole-3-carboxamide], the IC50 was under 1000 nM.

Consider `CC(=O)c1nn(CC(=O)N2C[C@H](F)C[C@H]2C(=O)Nc2cccc(-c3ccc4[nH]cnc4c3Cl)c2F)c2cnccc12` [Compound 459, (2S,4R)-1-(2-(3-acetyl-1H-pyrazolo[3,4-c]pyridin-1-yl)acetyl)-N-(3-(4-chloro-1H-benzo[d]imidazol-5-yl)-2-fluorophenyl)-4-fluoropyrrolidine-2-carboxamide], for which the IC50 was under 1000 nM.

As for `CC(=O)c1cn(CC(=O)N2C[C@H](F)C[C@H]2C(=O)Nc2cccc(-c3ccc4[nH]cnc4c3Cl)c2F)c2ccccc12` [Compound 460, (2S,4R)-1-(2-(3-acetyl-1H-indol-1-yl)acetyl)-N-(3-(4-chloro-1H-benzo[d]imidazol-5-yl)-2-fluorophenyl)-4-fluoropyrrolidin-2-carboxamide], the concentration for half-maximal inhibition (IC50) was under 1000 nM.
